{"source": "patent US20180044734A1", "about": "“COMPOSITION FOR DIAGNOSING SKIN DAMAGE CAUSED BY FINE DUST, AND COMPOSITION COMPRISING GALANGIN AS ACTIVE INGREDIENT” (AMOREPACIFIC CORPORATION, priority 2015, published 2018)", "key": {"[1]": {"tested_on": "microdust-treated normal human keratinocytes", "assay": "Real-time RT-PCR of microdust-responsive genes in microdust-treated keratinocytes treated with galangin", "format": "cell-based", "details": "microdust 2.5 μm 12.5 μg in 1 mL, galangin 0.25-2 μM, 24 hours", "method": "The normal human keratinocytes cultured in Example 2 were treated 12.5 μg of the microdust with a particle diameter of 2.5 μm extracted in Example 1 in 1 mL of a cell culture medium and relative mRNA expression level was measured using the primers described in Tables 5 and 6 (TaqMan® primers, Applied Biosystems).\nThe microdust-treated normal human keratinocytes or the normal human keratinocytes cultured in Example 2 but not treated with microdust were treated with galangin at different concentrations (0.25 μM, 0.5 μM, 1 μM and 2 μM). 24 hours later, the culture medium was removed and the cells were washed with 2 mL of phosphate-buffered saline (PBS). Then, RNA was isolated from the cells using TRIzol reagent (Invitrogen, Carlsbad, Calif., USA). For S100A8, S100A9, CYP1A1, CYP1B1, PI3, IL36G, IL1B, CCL27, IL8, NOX6, XDH, CXCL14, H19, CASP14 and CASP8, expression level was measured after treating with 0.25 μM galangin. The galangin was purchased commercially from Nanjing Chemlin Chemical (CAS No. 548-83-4). The isolated RNA was purified once again with Qiagen RNA kit Qiagen, Valencia, Calif.) and the quality of RNA was determined using Agilent 2100 BioAnalyzer (Agilent Technologies, Santa Clara, Calif., USA). cDNA synthesized from the RNA using SuperScript reverse transcriptase (RT) kit (Invitrogen, Carlsbad, Calif.) was quantitatively analyzed by real time-reverse transcription polymerase chain reaction (Q-RT-PCR) using the primers described in Tables 5 and 6. The change in gene expression pattern was evaluated in real time using TaqMan gene expression assay kit (Applied Biosystems, Foster City, Calif.). The Q-RT-PCR and real-time PCR were conducted in accordance with the standard protocols of Life Technologies, specifically, 95° C. for 20 seconds followed by 40 cycles of 95° C. for 3 seconds and 60° C. for 30 seconds."}, "[2]": {"tested_on": "filaggrin, keratin 10, keratin 1, keratin 13 and keratin 15 mRNA in normal human keratinocytes", "assay": "Real-time PCR of gene expression in normal keratinocytes upon treatment with galangin", "format": "cell-based", "details": "cells not treated with microdust; galangin 0, 0.5, 1, 2 μM, 24 hours", "method": "After treating the normal human keratinocytes cultured in Example 2 with galangin at different concentrations (0 μM, 0.5 μM, 1 μM and 2 μM), the relative mRNA expression level of filaggrin, keratin 10, keratin 1, keratin 13 and keratin 15 was measured.\n24 hours after the treatment with galangin, the culture medium was removed and the cells were washed with 2 mL of phosphate-buffered saline (PBS). Then, RNA was isolated from the cells using TRIzol reagent (Invitrogen, Carlsbad, Calif., USA).\nSubsequently, the change in gene expression was evaluated by real-time PCR in the same manner as in Example 5. For filaggrin, TaqMan® Hs00856927_g1 was used as the primer."}, "[3]": {"tested_on": "normal human keratinocytes", "assay": "Differentiation of keratinocytes under optical microscope", "format": "cell-based", "details": "cells not treated with microdust; galangin 0, 1, 2 μM, 24 hours", "method": "The normal human keratinocytes cultured in Example 2 were treated with galangin at different concentrations (0 μM, 1 μM and 2 μM). 24 hours later, the culture medium was removed and the degree of differentiation of the keratinocytes was observed under an optical microscope (Olympus IX71, x40 and x200)."}, "filaggrin protein": {"tested_on": "filaggrin protein", "assay": "Filaggrin protein expression by blotting with filaggrin antibody", "format": "cell-based, human", "details": "galangin 0, 0.5, 1, 2 μM, 24 hours; normalized to β-actin", "method": "The normal human keratinocytes cultured in Example 2 were treated with galangin at different concentrations (0 μM, 0.5 μM, 1 μM and 2 μM). 24 hours later, the culture medium was removed and the cells were washed with 2 mL of phosphate-buffered saline (PBS). After adding cell lysis buffer and vortexing, proteins were quantified from the obtained supernatant. The proteins obtained from the epidermis of normal skin and dry skin were loaded on SDS gel and then blotted using the filaggrin antibody (Covance, France). The quantification result was normalized to that of β-actin (Sigma, USA)."}}, "data": [{"smiles": "O=c1c(O)c(-c2ccccc2)oc2cc(O)cc(O)c12", "note": "[galangin]", "values": [{"measurement": "expression of genes whose expression is increased in skin cells stimulated by microdust", "setting": "[1]; FIGS. 2a-2k", "value": "decreased expression"}, {"measurement": "expression of genes increased or decreased in skin cells stimulated by microdust", "setting": "[1]; FIGS. 2 and 3", "value": "returned to the normal level"}, {"measurement": "expression of genes whose expression is decreased in skin cells stimulated by microdust", "setting": "[1]; FIGS. 3a-3k", "value": "increased expression"}, {"measurement": "relative mRNA expression level of filaggrin", "setting": "[2]", "value": "increased expression with increasing galangin concentration"}, {"measurement": "relative mRNA expression level of keratin 1", "setting": "[2]", "value": "increased expression with increasing galangin concentration"}, {"measurement": "relative mRNA expression level of keratin 10", "setting": "[2]", "value": "increased expression with increasing galangin concentration"}, {"measurement": "relative mRNA expression level of keratin 13", "setting": "[2]", "value": "increased expression with increasing galangin concentration"}, {"measurement": "relative mRNA expression level of keratin 15", "setting": "[2]", "value": "increased expression with increasing galangin concentration"}, {"measurement": "degree of differentiation of the keratinocytes", "setting": "[3]", "value": "active differentiation with increasing galangin concentration"}, {"measurement": "expression of filaggrin protein", "setting": "filaggrin protein", "value": "increased with increasing galangin concentration"}]}]}
